Data taken from patent publication US20240368104A1, “Novel Dialkoxynaphtho[2,3-C]Furan-1(3H)-One Derivatives and Pharmaceutical Composition For Preventing or Treating Respiratory Disease or SARS-COV-2 Infection Disease, Comprising Same” (priority 2021, published 2024).

Tests used:
[1] = tested on: SARS-COV-2; experiment: microbe, parasite or virus in culture; format: cell-based; parameters: SI (Selectivity Index, CC50/IC50): unit not given here; settings: for SI (Selectivity Index, CC50/IC50): SARS-COV-2, values >50 assumed to be 50; for IC50: Severe acute respiratory syndrome coronavirus 2, Vero cells, 24 hours infection, read-out: SARS-COV-2 inhibition (IC50)
[2] = in vitro; settings: African green monkey

COc1cc2cc3c(c(-c4cnc(Oc5cccc6ccccc56)nc4)c2cc1OC)C(=O)OC3 [Example 21, 6,7-dimethoxy-9-(2-(naphthalen-1-yloxy)pyrimidin-5-yl)naphtho[2,3-c]furan-1(3H)-one]
SI (Selectivity Index, CC50/IC50) [1]: 1.00
IC50 [1]: > 50 µM
CC50 [2]: > 50 µM

COc1ncc(-c2c3c(cc4cc(OC)c(OC)cc24)COC3=O)cn1 [Example 26, 6,7-dimethoxy-9-(2-methoxypyrimidin-5-yl)naphtho[2,3-c]furan-1(3H)-one]
SI (Selectivity Index, CC50/IC50) [1]: 9.52
IC50 [1]: 5.25 µM
CC50 [2]: > 50 µM

COc1cc2cc3c(c(-c4cnc(/N=C\CN(C)C)cn4)c2cc1OC)C(=O)OC3 [Example 29, (Z)-9-(5-((2-(dimethylamino)ethyliden)amino)pyrazin-2-yl)-6,7-dimethoxynaphtho[2,3-c]furan-1(3H)-one]
SI (Selectivity Index, CC50/IC50) [1]: 1.00
IC50 [1]: > 50 µM
CC50 [2]: > 50 µM

COc1cc2cc3c(c(-c4cnc(N)cn4)c2cc1OC)C(=O)OC3 [Example 30, 9-(5-aminopyrazin-2-yl)-6,7-dimethoxynaphtho[2,3-c]furan-1(3H)-one]
SI (Selectivity Index, CC50/IC50) [1]: 1.00
IC50 [1]: > 50 µM
CC50 [2]: > 50 µM

COc1cc2cc3c(c(-c4cnc(N(C)C)cn4)c2cc1OC)C(=O)OC3 [Example 31, 9-(5-(dimethylamino)pyrazin-2-yl)-6,7-dimethoxynaphtho[2,3-c]furan-1(3H)-one]
SI (Selectivity Index, CC50/IC50) [1]: 11.86
IC50 [1]: 4.22 µM
CC50 [2]: > 50 µM

COc1cc2cc3c(c(-c4cnccn4)c2cc1OC)C(=O)OC3 [Example 32, 6,7-dimethoxy-9-(pyrazin-2-yl)naphtho[2,3-c]furan-1(3H)-one]
SI (Selectivity Index, CC50/IC50) [1]: 1.00
IC50 [1]: > 50 µM
CC50 [2]: > 50 µM

COCCN(C)C(=O)[C@@H]1CCCN1c1ncc(-c2c3c(cc4cc(OC)c(OC)cc24)COC3=O)cn1 [Example 33, (S)-1-(5-(6,7-dimethoxy-3-oxo-1,3-dihydronaphtho[2,3-c]furan-4-yl)pyrimidin-2-yl)-N-(2-methoxyethyl)-N-methylpyrrolidin-2-carboxamide]
SI (Selectivity Index, CC50/IC50) [1]: 1.00
IC50 [1]: > 50 µM
CC50 [2]: > 50 µM

COc1cc2cc3c(c(-c4ccc5[nH]ccc5c4)c2cc1OC)C(=O)OC3 [Example 34, 9-(1H-indol-5-yl)-6,7-dimethoxynaphtho[2,3-c]furan-1(3H)-one]
SI (Selectivity Index, CC50/IC50) [1]: 12.40
IC50 [1]: 4.03 µM
CC50 [2]: > 50 µM

COc1cc2cc3c(c(-c4ccc(F)nc4)c2cc1OC)C(=O)OC3 [Example 35, 9-(6-fluoropyridin-3-yl)-6,7-dimethoxynaphtho[2,3-c]furan-1(3H)-one]
SI (Selectivity Index, CC50/IC50) [1]: 1.00
IC50 [1]: > 50 µM
CC50 [2]: > 50 µM

COc1cc2cc3c(c(-c4cnc(N5CCC[C@H]5C(N)=O)nc4)c2cc1OC)C(=O)OC3 [Example 49, (S)-1-(5-(6,7-dimethoxy-3-oxo-1,3-dihydronaphtho[2,3-c]furan-4-yl)pyrimidin-2-yl) pyrrolidin-2-carboxamide]
SI (Selectivity Index, CC50/IC50) [1]: 1.00
IC50 [1]: > 50 µM
CC50 [2]: > 50 µM

COc1cc2cc3c(c(-c4cnc(N5CCOCC5)nc4)c2cc1OC)C(=O)OC3 [Example 51, 6,7-dimethoxy-9-(2-morpholinopyrimidin-5-yl)naphtho[2,3-c]furan-1(3H)-one]
SI (Selectivity Index, CC50/IC50) [1]: 34.12
IC50 [1]: 1.47 µM
CC50 [2]: > 50 µM

COc1cc2cc3c(c(-c4ccc5occc5c4)c2cc1OC)C(=O)OC3 [Example 52, 9-(benzofuran-5-yl)-6,7-dimethoxynaphtho[2,3-c]furan-1(3H)-one]
SI (Selectivity Index, CC50/IC50) [1]: 35.13
IC50 [1]: 1.42 µM
CC50 [2]: > 50 µM

COc1cc2cc3c(c(-c4ccc(C(=O)c5ccccc5)s4)c2cc1OC)C(=O)OC3 [Example 53]
SI (Selectivity Index, CC50/IC50) [1]: 19.94
IC50 [1]: 2.51 µM
CC50 [2]: > 50 µM
